Measurements published in article PMC11762167, “G Protein-Coupled Receptor 17 Inhibits Glucagon-like Peptide-1 Secretion via a Gi/o-Dependent Mechanism in Enteroendocrine Cells” (Biomolecules, 2024).
Read-outs that look alike come from different tables or passages of the source.

Key:
Assay type in all cases: cell-based
hGPR17L = hGPR17L (Homo sapiens, UniProt Q13304); assay: Calcium flux (Calcium 6) in GLUTag cells expressing hGPR17L; set-up: host or cells: GLUTag cells (murine enteroendocrine line), adenoviral transduction; settings: for Mean Diff.: hGPR17L; for Mean Diff. (Tukey's multiple comparisons test, Figure 4C): hGPR17L-WT
Method: (§1) GLUTag cells were maintained in Dulbecco’s Modified Eagle Medium (DMEM) supplemented with 10% fetal bovine serum and 1% penicillin–streptomycin in a humidified incubator at 37 °C and 5% CO2. For adenovirus transduction, GLUTag cells were seeded into poly-D-lysine coated 96-well plates or 4-chamber slides. The next day, cells were transduced with adenoviruses (100–1250 viral particles per cell at time of seeding) as indicated. After 24–30 h, adenovirus-containing media was changed to serum-free growth media for overnight serum starvation. The following day, GLUTag cells were used for cAMP or calcium signaling assays, GLP-1 secretion assays, or immunostaining and imaging.
GLUTag cells were seeded into black, clear bottom, poly-D-lysine-coated 96-well plates. Cells were transduced and serum starved as specified above. Growth medium was then replaced with 100 μL/well assay buffer (HBSS, 20 mM HEPES, pH 7.4) and 100 μL/well Calcium 6 loading dye (R8190; Molecular Devices, San Jose, CA, USA). During dye loading, cells were incubated at 37 °C and 5% CO2 for 2 h. MDL29,951 or KCl was added to the wells and fluorescence (485 nm excitation, 525 nm emission, and 515 nm automatic emission cutoff) was measured using a Molecular Devices FlexStation3 (Molecular Devices) at 37 °C. For experiments with PTX, cells were pretreated with 100 ng/mL PTX overnight and 100 ng/mL PTX was included with Calcium 6 loading dye for calcium flux assays. For experiments with YM-254890, cells were pretreated for 30 min at 37 °C.

mGPR17 [1] = target: T1, mGPR17 (Mus musculus, UniProt Q6NS65); assay: Endpoint cAMP in GLUTag cells expressing mGPR17; set-up: host or cells: GLUTag cells, adenoviral transduction
Method: as §1
Endpoint cAMP measurements were conducted as follows. GLUTag cells were seeded into poly-D-lysine-coated 96-well plates and transduced with adenovirus as specified above and then tested for cAMP signaling. Medium was removed and cells were washed with cAMP stimulation buffer (Hanks’ balanced salt solution (HBSS), 20 mM HEPES, pH 7.4) and then incubated in cAMP stimulation buffer for 30 min at 37 °C and 5% CO2. Cells were then treated for 30 min with agonist and forskolin in the presence of 500 µM IBMX at 37 °C and 5% CO2. Stimulation buffer was then decanted, and cAMP lysis buffer (50 mM HEPES, 10 mM CaCl2, 0.35% Triton X-100, and 500 µM IBMX) was added and shaken at 700 rpm for 1 h. Lysate was transferred to a 384-well plate, and the cAMP levels were quantified using the Cisbio HTRF cAMP (Gi kit; Revvity, Waltham, MA, USA) according to the manufacturer’s protocol.

mGPR17 [2] = target: T1, mGPR17; assay: Calcium mobilization in HEK293 cells transfected with mGPR17
Method: HEK293 cells were maintained and transfected as previously described.
Calcium flux in HEK293 cells was measured as previously described.

[3] = HEK293 mGPR17 versus hGPR17L and hGPR17S

T1 sequence (Q6NS65 whole entry): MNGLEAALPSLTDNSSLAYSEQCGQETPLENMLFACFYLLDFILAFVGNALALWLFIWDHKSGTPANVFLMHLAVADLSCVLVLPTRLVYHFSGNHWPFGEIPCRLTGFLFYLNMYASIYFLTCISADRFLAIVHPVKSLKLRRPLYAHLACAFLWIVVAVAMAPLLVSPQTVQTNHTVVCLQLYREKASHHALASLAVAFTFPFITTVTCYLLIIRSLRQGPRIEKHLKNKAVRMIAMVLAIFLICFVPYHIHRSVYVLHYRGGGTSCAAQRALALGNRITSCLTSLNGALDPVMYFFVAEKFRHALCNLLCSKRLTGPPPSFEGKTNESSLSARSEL
Chain of hGPR17L (Q13304 whole entry): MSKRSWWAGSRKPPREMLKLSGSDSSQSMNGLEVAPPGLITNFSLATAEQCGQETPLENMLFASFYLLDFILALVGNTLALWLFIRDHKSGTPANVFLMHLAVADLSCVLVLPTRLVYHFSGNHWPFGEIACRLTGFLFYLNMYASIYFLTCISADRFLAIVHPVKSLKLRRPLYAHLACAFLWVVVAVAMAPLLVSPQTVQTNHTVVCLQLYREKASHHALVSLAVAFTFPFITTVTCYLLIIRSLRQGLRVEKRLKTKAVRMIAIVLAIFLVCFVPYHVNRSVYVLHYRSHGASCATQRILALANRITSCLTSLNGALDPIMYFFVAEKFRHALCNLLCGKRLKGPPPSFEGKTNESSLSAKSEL

O=C(O)CCc1c(C(=O)O)[nH]c2cc(Cl)cc(Cl)c12 [MDL29,951]
Mean Diff. (hGPR17L; Figure 1B, log [MDL29,951] (M) -5.5 vs. Vehicle): 0.6163 | Mean Diff. (hGPR17L; Figure 1B, log [MDL29,951] (M) -6.0 vs. Vehicle): 0.538 | Mean Diff. (hGPR17L; Figure 1B, log [MDL29,951] (M) -6.4 vs. Vehicle): 0.47 | Mean Diff. (hGPR17L; Figure 1B, log [MDL29,951] (M) -6.9 vs. Vehicle): 0.3087 | Mean Diff. (hGPR17L; Figure 1B, log [MDL29,951] (M) -7.4 vs. Vehicle): 0.2053 | Mean Diff. (hGPR17L; Figure 1B, log [MDL29,951] (M) -7.9 vs. Vehicle): 0.06133 | Mean Diff. (hGPR17L; Figure 1B, log [MDL29,951] (M) -8.3 vs. Vehicle): 0.004667 | Mean Diff. (hGPR17L; Figure 1B, log [MDL29,951] (M) -8.8 vs. Vehicle): -0.001667 | maximum peak ΔF/F, calcium flux (hGPR17L; GLUTag hGPR17L, Figure 1B): 0.80 ± 0.07 | pEC50, calcium flux (hGPR17L; GLUTag hGPR17L, Figure 1B): 6.66 ± 0.13 | EC50 (hGPR17L; GLUTag hGPR17L, Figure 1B, read-out: potency (EC50), calcium flux): 220 nM | shift in the EC50 of MDL29,951, calcium mobilization (hGPR17L; PTX-treated versus vehicle-treated cells): 3 fold | Mean Diff. (Tukey's multiple comparisons test, Figure 4C) (hGPR17L; log [MDL29,951] (M) -4.5 vs. Vehicle): 100.4 | Mean Diff. (Tukey's multiple comparisons test, Figure 4C) (hGPR17L; log [MDL29,951] (M) -5.0 vs. Vehicle): 91.26 | Mean Diff. (Tukey's multiple comparisons test, Figure 4C) (hGPR17L; log [MDL29,951] (M) -5.5 vs. Vehicle): 81.52 | Mean Diff. (Tukey's multiple comparisons test, Figure 4C) (hGPR17L; log [MDL29,951] (M) -6.0 vs. Vehicle): 71.5 | Mean Diff. (Tukey's multiple comparisons test, Figure 4C) (hGPR17L; log [MDL29,951] (M) -6.4 vs. Vehicle): 61.96 | Mean Diff. (Tukey's multiple comparisons test, Figure 4C) (hGPR17L; log [MDL29,951] (M) -6.9 vs. Vehicle): 41.28 | Mean Diff. (Tukey's multiple comparisons test, Figure 4C) (hGPR17L; log [MDL29,951] (M) -7.4 vs. Vehicle): 27.22 | Mean Diff. (Tukey's multiple comparisons test, Figure 4C) (hGPR17L; log [MDL29,951] (M) -7.9 vs. Vehicle): 8.591 | Mean Diff. (Tukey's multiple comparisons test, Figure 4C) (hGPR17L; log [MDL29,951] (M) -8.3 vs. Vehicle): 0.737 | Mean Diff. (Tukey's multiple comparisons test, Figure 4C) (hGPR17L; log [MDL29,951] (M) -8.8 vs. Vehicle): -0.2507 | pEC50, calcium mobilization (hGPR17L; vehicle-treated cells, Figure 2C): 6.34 ± 0.06 | EC50 (hGPR17L; vehicle-treated cells, Figure 2C, read-out: EC50, calcium mobilization): 440 nM | concentration of maximal inhibition of forskolin-stimulated cAMP (mGPR17 [1]; 10 µM forskolin, GLUTag mGPR17): 1 µM | Mean Diff. (Tukey's multiple comparisons test), cAMP, Row 10 vs. Row 11 (mGPR17 [1]; mGPR17 (100), log [MDL29,951] (M) -4.0 vs. Vehicle, Forskolin stimulation, Figure 4B): -19.04 | Mean Diff. (Tukey's multiple comparisons test), cAMP, Row 9 vs. Row 11 (mGPR17 [1]; mGPR17 (100), log [MDL29,951] (M) -4.6 vs. Vehicle, Forskolin stimulation, Figure 4B): -22.19 | Mean Diff. (Tukey's multiple comparisons test), cAMP, Row 8 vs. Row 11 (mGPR17 [1]; mGPR17 (100), log [MDL29,951] (M) -5.2 vs. Vehicle, Forskolin stimulation, Figure 4B): -23.87 | Mean Diff. (Tukey's multiple comparisons test), cAMP, Row 7 vs. Row 11 (mGPR17 [1]; mGPR17 (100), log [MDL29,951] (M) -5.8 vs. Vehicle, Forskolin stimulation, Figure 4B): -30.13 | Mean Diff. (Tukey's multiple comparisons test), cAMP, Row 6 vs. Row 11 (mGPR17 [1]; mGPR17 (100), log [MDL29,951] (M) -6.4 vs. Vehicle, Forskolin stimulation, Figure 4B): -28.75 | Mean Diff. (Tukey's multiple comparisons test), cAMP, Row 5 vs. Row 11 (mGPR17 [1]; mGPR17 (100), log [MDL29,951] (M) -7.0 vs. Vehicle, Forskolin stimulation, Figure 4B): -21.6 | Mean Diff. (Tukey's multiple comparisons test), cAMP, Row 4 vs. Row 11 (mGPR17 [1]; mGPR17 (100), log [MDL29,951] (M) -7.6 vs. Vehicle, Forskolin stimulation, Figure 4B): -16.65 | Mean Diff. (Tukey's multiple comparisons test), cAMP, Row 3 vs. Row 11 (mGPR17 [1]; mGPR17 (100), log [MDL29,951] (M) -8.2 vs. Vehicle, Forskolin stimulation, Figure 4B): -3.513 | Mean Diff. (Tukey's multiple comparisons test), cAMP, Row 2 vs. Row 11 (mGPR17 [1]; mGPR17 (100), log [MDL29,951] (M) -8.8 vs. Vehicle, Forskolin stimulation, Figure 4B): -3.853 | Mean Diff. (Tukey's multiple comparisons test), cAMP, Row 1 vs. Row 11 (mGPR17 [1]; mGPR17 (100), log [MDL29,951] (M) -9.4 vs. Vehicle, Forskolin stimulation, Figure 4B): -5.46 | Calcium Emax (Mean Peak ΔF/F) (mGPR17 [2]; HEK293 mGPR17): 0.70±0.09 | Calcium Potency (pEC50) (mGPR17 [2]; HEK293 mGPR17): 6.31±0.05 | EC50 (mGPR17 [2]; HEK293 mGPR17, read-out: Calcium Potency EC50): 490 nM | calcium response potency, fold less potent than human GPR17 isoforms (mGPR17 [2]; [3]): approximately 10 fold | reduction in calcium efficacy as compared to human GPR17 isoforms (mGPR17 [2]; [3]): > 60%
